{"source": "paper PMC7714403", "about": "(JCI Insight, 2020)", "key": {"[1]": {"tested_on": "40 kinases", "conditions": "200 nM; 11 of 40 kinases; cited from earlier work"}, "[2]": {"biological_target": "PKCi (Homo sapiens, UniProt P41743)", "sequence (P41743 whole entry)": "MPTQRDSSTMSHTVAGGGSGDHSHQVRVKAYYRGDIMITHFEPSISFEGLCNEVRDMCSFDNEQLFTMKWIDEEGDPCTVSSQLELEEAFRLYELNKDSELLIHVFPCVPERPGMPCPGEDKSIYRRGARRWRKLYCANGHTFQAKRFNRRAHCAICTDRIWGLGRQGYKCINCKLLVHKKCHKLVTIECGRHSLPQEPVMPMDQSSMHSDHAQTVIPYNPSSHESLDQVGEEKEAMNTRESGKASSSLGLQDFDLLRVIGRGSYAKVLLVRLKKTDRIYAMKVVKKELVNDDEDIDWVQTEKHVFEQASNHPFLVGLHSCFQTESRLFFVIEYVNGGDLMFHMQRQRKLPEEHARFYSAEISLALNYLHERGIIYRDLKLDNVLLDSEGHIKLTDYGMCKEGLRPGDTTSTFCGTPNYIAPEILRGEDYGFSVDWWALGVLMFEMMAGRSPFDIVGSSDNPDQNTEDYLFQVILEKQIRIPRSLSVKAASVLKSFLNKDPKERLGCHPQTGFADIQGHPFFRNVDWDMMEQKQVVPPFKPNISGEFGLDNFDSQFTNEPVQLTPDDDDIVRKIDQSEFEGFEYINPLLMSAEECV", "assay": "KiNativ, OCI cells live cell", "assay_type": "cell-based", "conditions": "2 h"}, "[3]": {"biological_target": "MARK2 (Homo sapiens, UniProt Q7KZI7)", "sequence (Q7KZI7 whole entry)": "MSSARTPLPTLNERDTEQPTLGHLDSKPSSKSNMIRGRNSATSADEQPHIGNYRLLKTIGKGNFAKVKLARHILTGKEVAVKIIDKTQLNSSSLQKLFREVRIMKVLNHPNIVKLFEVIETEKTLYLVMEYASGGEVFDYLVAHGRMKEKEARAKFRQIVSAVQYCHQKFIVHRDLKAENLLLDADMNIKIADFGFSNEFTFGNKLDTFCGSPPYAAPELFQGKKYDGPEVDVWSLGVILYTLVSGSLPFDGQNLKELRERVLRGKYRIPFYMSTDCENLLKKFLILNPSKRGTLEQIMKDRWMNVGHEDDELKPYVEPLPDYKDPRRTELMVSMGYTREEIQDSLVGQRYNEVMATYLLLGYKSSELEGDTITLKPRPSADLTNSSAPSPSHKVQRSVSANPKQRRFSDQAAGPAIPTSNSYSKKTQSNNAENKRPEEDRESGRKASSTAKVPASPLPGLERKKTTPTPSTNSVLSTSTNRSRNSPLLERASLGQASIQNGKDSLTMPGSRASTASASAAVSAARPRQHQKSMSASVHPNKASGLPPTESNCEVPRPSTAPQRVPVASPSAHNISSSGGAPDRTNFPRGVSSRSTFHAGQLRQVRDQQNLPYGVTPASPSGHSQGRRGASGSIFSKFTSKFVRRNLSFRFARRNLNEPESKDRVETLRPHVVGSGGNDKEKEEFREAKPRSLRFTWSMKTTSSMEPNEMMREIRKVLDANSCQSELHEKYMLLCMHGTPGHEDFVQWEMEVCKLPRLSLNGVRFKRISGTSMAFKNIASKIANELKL", "assay": "KiNativ, OCI cells live cell", "assay_type": "cell-based", "conditions": "2 h, labeling site Lys1, peptide […]"}, "[4]": {"biological_target": "CK1g3 (Homo sapiens, UniProt Q9Y6M4)", "assay": "KiNativ, OCI cells live cell", "assay_type": "cell-based", "conditions": "labeling site Lys2, peptide DVKPENFLIGRPGNK"}, "[5]": {"tested_on": "ROCK1, ROCK2", "assay": "KiNativ, OCI cells live cell", "assay_type": "cell-based, human"}, "[6]": {"tested_on": "PKCa, PKCg", "assay": "KiNativ, OCI cells live cell", "assay_type": "cell-based, human", "conditions": "labeling site Other, peptide NLIPMDPNGLSDPYVKLK"}, "[7]": {"biological_target": "ATR (Homo sapiens, UniProt Q13535)", "assay": "KiNativ, OCI cells live cell", "assay_type": "cell-based", "conditions": "2 h, labeling site ATP, peptide […]"}, "[8]": {"biological_target": "FLT3-ITD and TKD mutants", "assay": "KdELECT binding assay", "conditions": "range over FLT3-ITD and TKD mutants"}, "[9]": {"biological_target": "PCTAIRE2 (Homo sapiens, UniProt Q00537)", "sequence (Q00537 whole entry)": "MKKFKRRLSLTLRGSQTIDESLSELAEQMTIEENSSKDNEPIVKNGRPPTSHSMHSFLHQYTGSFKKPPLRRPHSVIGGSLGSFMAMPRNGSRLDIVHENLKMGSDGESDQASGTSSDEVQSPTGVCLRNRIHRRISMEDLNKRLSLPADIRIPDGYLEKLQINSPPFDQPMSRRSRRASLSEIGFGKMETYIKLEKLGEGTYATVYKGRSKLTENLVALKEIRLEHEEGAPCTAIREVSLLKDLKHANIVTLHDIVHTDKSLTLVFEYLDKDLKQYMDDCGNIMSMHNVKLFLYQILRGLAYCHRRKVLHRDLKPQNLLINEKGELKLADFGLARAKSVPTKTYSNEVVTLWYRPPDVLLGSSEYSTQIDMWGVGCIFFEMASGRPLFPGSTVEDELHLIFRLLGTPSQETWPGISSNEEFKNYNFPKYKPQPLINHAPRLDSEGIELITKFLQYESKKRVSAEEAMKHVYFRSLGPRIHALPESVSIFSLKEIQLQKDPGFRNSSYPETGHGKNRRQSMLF", "assay": "KiNativ, OCI cells live cell", "assay_type": "cell-based", "conditions": "2 h, labeling site Lys2, peptide […]"}, "[10]": {"biological_target": "T1, JAK1 (Homo sapiens, UniProt P23458)", "T1 construct": "purchased Eurofins DiscoverX", "assay": "KdELECT binding assay"}, "[11]": {"biological_target": "T2, ZAP70 (Homo sapiens, UniProt P43403)", "T2 sequence (P43403 1-619)": "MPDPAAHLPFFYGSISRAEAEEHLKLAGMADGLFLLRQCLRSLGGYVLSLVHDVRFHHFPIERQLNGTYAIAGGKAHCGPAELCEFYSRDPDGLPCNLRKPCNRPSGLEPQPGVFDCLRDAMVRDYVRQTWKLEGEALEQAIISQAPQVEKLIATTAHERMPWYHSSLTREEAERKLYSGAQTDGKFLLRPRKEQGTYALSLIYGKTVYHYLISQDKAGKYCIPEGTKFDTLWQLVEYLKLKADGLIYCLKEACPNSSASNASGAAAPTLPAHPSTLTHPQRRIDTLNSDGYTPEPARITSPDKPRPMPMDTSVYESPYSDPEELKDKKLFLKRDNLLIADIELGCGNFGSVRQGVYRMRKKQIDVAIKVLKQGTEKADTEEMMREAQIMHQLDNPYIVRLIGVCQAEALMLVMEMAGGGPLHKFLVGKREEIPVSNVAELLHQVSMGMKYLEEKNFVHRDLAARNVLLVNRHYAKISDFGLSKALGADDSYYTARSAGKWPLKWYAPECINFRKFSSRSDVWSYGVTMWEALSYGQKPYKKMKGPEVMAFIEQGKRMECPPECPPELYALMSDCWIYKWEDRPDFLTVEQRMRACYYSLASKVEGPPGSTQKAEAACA", "assay": "KiNativ, OCI cells live cell", "assay_type": "cell-based", "conditions": "2 h, labeling site Activation Loop"}, "[12]": {"biological_target": "eEF2K (Homo sapiens, UniProt O00418)", "sequence (O00418 whole entry)": "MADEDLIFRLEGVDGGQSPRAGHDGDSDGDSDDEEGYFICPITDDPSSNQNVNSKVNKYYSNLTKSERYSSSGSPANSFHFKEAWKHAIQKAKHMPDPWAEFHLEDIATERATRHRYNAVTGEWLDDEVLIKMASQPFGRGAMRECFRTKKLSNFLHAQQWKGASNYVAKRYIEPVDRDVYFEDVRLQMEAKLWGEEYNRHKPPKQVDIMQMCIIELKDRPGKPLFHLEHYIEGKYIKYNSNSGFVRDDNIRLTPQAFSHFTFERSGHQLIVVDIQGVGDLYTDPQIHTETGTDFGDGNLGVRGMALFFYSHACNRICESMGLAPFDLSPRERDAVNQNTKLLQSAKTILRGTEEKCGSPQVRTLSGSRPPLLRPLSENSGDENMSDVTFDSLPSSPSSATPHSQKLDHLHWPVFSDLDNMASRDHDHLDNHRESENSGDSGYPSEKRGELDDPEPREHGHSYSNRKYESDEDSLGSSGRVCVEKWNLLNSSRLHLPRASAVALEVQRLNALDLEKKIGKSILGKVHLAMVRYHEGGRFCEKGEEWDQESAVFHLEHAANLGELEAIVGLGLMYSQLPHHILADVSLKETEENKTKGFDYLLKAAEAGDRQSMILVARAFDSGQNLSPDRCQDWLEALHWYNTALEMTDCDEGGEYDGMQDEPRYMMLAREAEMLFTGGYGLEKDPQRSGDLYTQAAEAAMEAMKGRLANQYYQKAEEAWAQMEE", "assay": "KiNativ, OCI cells live cell", "assay_type": "cell-based", "conditions": "2 h, labeling site ATP, peptide […]"}, "[13]": {"tested_on": "MAP3K15, MAP3K5, MAP3K6", "assay": "KiNativ, OCI cells live cell", "assay_type": "cell-based, human", "conditions": "labeling site Lys1, peptide IAIKEIPER"}, "[14]": {"biological_target": "FLT3 ITD (Homo sapiens, UniProt P36888, ITD)", "sequence (P36888 564-993, stated change not applied)": "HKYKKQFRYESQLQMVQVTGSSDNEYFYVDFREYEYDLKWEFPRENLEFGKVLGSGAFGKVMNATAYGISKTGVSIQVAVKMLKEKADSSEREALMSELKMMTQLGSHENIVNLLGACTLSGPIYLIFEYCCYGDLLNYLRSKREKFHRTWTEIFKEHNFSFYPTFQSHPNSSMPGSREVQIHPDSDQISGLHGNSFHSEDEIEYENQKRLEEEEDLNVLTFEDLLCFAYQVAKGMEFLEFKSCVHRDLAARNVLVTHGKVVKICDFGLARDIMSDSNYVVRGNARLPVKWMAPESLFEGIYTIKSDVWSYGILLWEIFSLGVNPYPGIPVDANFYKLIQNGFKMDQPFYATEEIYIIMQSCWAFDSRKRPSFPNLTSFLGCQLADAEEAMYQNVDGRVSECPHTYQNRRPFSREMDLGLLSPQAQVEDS", "assay": "KdELECT binding assay"}, "[15]": {"biological_target": "PLK1 (Homo sapiens, UniProt P53350)", "sequence (P53350 whole entry)": "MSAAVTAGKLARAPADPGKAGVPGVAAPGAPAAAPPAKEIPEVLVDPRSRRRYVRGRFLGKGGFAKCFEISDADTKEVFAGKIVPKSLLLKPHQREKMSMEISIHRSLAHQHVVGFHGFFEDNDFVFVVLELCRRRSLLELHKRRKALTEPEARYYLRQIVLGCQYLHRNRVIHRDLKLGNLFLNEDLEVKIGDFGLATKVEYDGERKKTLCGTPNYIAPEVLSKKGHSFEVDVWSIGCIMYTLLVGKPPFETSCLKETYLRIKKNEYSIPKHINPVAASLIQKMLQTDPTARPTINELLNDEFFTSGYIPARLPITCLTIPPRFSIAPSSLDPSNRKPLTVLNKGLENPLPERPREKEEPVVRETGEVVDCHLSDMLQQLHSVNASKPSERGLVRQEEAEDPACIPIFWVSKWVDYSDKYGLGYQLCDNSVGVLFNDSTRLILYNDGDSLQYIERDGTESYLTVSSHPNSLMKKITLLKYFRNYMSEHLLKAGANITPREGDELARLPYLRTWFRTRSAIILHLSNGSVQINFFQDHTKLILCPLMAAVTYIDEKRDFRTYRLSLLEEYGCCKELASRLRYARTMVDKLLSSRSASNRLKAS", "assay": "KiNativ, OCI cells live cell", "assay_type": "cell-based", "conditions": "2 h"}, "[16]": {"biological_target": "T3, RSK1 domain1 (Homo sapiens, UniProt Q15418)", "T3 construct": "RSK1 domain1", "assay": "KiNativ, OCI cells live cell", "assay_type": "cell-based", "conditions": "2 h"}, "[17]": {"biological_target": "MST1 (Homo sapiens, UniProt Q13043)", "sequence (Q13043 whole entry)": "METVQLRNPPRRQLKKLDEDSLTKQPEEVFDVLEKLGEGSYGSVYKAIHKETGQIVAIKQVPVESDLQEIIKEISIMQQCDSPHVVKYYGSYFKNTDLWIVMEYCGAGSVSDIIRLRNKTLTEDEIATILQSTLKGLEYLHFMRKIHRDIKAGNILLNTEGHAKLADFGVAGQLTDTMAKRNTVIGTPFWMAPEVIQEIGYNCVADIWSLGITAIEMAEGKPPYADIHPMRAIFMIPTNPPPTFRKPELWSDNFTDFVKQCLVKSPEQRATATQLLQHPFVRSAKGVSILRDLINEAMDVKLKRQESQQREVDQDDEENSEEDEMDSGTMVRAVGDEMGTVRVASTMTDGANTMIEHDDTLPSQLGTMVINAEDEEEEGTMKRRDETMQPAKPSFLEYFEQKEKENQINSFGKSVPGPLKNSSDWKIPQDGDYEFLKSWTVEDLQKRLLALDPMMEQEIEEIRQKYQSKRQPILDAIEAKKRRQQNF", "assay": "KiNativ, OCI cells live cell", "assay_type": "cell-based", "conditions": "labeling site Lys1, peptide ETGQIVAIKQVPVESDLQEIIK"}, "[18]": {"biological_target": "BARK1 (Homo sapiens, UniProt P25098)", "assay": "KiNativ, OCI cells live cell", "assay_type": "cell-based", "conditions": "2 h, labeling site Lys2, peptide […]"}, "[19]": {"biological_target": "AKT1 (Homo sapiens, UniProt P31749)", "sequence (P31749 whole entry)": "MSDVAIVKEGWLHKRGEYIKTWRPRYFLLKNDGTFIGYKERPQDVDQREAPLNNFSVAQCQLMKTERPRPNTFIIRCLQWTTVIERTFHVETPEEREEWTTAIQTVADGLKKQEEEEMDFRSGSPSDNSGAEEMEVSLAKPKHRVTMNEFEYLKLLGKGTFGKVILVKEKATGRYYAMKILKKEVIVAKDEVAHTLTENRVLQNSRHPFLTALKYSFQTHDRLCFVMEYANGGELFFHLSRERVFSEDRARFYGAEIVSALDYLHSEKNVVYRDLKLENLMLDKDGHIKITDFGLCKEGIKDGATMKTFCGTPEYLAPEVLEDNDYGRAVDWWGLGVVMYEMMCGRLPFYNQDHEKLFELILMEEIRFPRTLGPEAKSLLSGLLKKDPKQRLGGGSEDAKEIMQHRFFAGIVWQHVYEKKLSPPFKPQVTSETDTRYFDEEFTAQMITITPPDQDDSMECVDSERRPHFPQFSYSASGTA", "assay": "KiNativ, OCI cells live cell", "assay_type": "cell-based", "conditions": "2 h, labeling site ATP Loop, peptide […]"}, "[20]": {"tested_on": "OCI-AML3-Luc+ cells", "assay": "OCI-AML3-Luc+ xenograft model", "assay_type": "in vivo, NSG mice", "description": "Engraftment and growth of leukemic cells were monitored by noninvasive bioluminescence imaging in cell line xenograft models, as previously done ([47]). Details on the cell engraftment and dosing in mouse models are provided in the Supplemental Methods.\nLuc+ or MOLM13-Res -Luc+ cells, 0.5 million OCI-AML3 -Luc+ cells, and 10,000 Ba/F3-FLT3-ITD/F691L-GFP+ cells. Weekly tumor engraftment of cell line xenograft models were assessed after injection of D-luciferin (150mg/kg i.p.; Gold Biotechnology, Inc, St. Louis, MO) on Xenogen IVIS-200 imaging system (Perkin Elmer, Waltham, MA) or GFP monitoring by peripheral blood via BD LSR II flow cytometer (BD Biosciences, San Jose, CA). Signal intensity was analyzed using Living Image Software (PerkinElmer) or FlowJo v10.0.08 software (FlowJo, LLC, Ashland, OR). Mice were randomized to treatment groups based on signal intensity and leukemia burden. Drug treatments were started on days 3, 7, or 13 after cell injection in OCI-AML3, MOLM13, and MOLM13-Res xenografts, respectively. […]\nAll mice were observed daily and humanely euthanized when showing signs of progressive disease including, hind limb paralysis, weight loss more than 20%, and lethargy. All animal studies were approved by the OSU Institutional Animal Care and Use Committee. […]\nCells were then fixed on ice with ice-cold 70% ethanol for 30 minutes . Cells were either stored at -20°C for up to 1 month or processed immediately. Cells were spun down at 450 x g for 10 minutes and stained"}, "[21]": {"conditions": "50 mg/kg once daily 5 days/week"}}, "note": "Like-named read-outs stand apart in the source and are kept apart here.", "data": [{"compound": "CN1CCN(Cc2ccc(Nc3ncc(Cl)c(Nc4ccccc4S(=O)(=O)N(C)C)n3)cc2)CC1", "note": "[TP-0903]", "values": [{"measurement": "Inhibition of kinases", "setting": "[1]", "value": "> 50", "unit": "%"}, {"measurement": "inhibition at 0.1 µM", "setting": "[2]; labeling site Lys1, peptide IYAMKVVK", "value": 9.2, "unit": "%"}, {"measurement": "inhibition at 0.1 µM", "setting": "[2]; labeling site Lys2, peptide DLKLDNVLLDSEGHIK", "value": 8.9, "unit": "%"}, {"measurement": "inhibition at 0.1 µM", "setting": "[3]", "value": 37.7, "unit": "%"}, {"measurement": "Inhibition", "setting": "[4]", "value": -14.0, "unit": "%"}, {"measurement": "Inhibition", "setting": "[5]; labeling site Lys1, peptide VYAMKLLSK", "value": -8.5, "unit": "%"}, {"measurement": "Inhibition", "setting": "[5]; labeling site Lys2, peptide DVKPDNMLLDK", "value": -30.5, "unit": "%"}, {"measurement": "Inhibition", "setting": "[6]", "value": -15.0, "unit": "%"}, {"measurement": "inhibition at 0.1 µM", "setting": "[7]", "value": 13, "unit": "%"}, {"measurement": "Kd", "setting": "[8]", "value": "0.79 to 5.6", "unit": "nM"}, {"measurement": "inhibition at 0.1 µM", "setting": "[9]", "value": 87.8, "unit": "%"}, {"measurement": "Kd", "setting": "[10]", "value": 23, "unit": "nM"}, {"measurement": "inhibition at 0.1 µM", "setting": "[11]; peptide ISDFGLSKALGADDSYYTAR", "value": -29.4, "unit": "%"}, {"measurement": "inhibition at 0.1 µM", "setting": "[11]; peptide […], read-out: Inhibition", "value": -4, "unit": "%"}, {"measurement": "inhibition at 0.1 µM", "setting": "[12]", "value": 12.4, "unit": "%"}, {"measurement": "Inhibition", "setting": "[13]", "value": -14.4, "unit": "%"}, {"measurement": "Kd", "setting": "[14]", "value": 5.6, "unit": "nM"}, {"measurement": "inhibition at 0.1 µM", "setting": "[15]; labeling site Lys1, peptide CFEISDADTKEVFAGKIVPK", "value": -5, "unit": "%"}, {"measurement": "inhibition at 0.1 µM", "setting": "[15]; labeling site Lys2, peptide DLKLGNLFLNEDLEVK", "value": -4.3, "unit": "%"}, {"measurement": "inhibition at 0.1 µM", "setting": "[16]; labeling site Activation Loop, peptide LTDFGLSKEAIDHEKK", "value": 44.9, "unit": "%"}, {"measurement": "inhibition at 0.1 µM", "setting": "[16]; labeling site Lys1, peptide KVTRPDSGHLYAMKVLK", "value": 42.9, "unit": "%"}, {"measurement": "Inhibition", "setting": "[17]", "value": 33.6, "unit": "%"}, {"measurement": "inhibition at 0.1 µM", "setting": "[18]", "value": -3.8, "unit": "%"}, {"measurement": "inhibition at 0.1 µM", "setting": "[19]", "value": -17.1, "unit": "%"}, {"measurement": "Outgrowth of leukemia cells (bioluminescence)", "setting": "[20]; [21]", "value": "suppressed the outgrowth of leukemia cells"}, {"measurement": "Spleen weight at study endpoint (mean ± SD)", "setting": "[20]; [21]", "value": "181 ± 21", "unit": "mg"}, {"measurement": "Survival prolonged compared with vehicle", "setting": "[20]; 50 mg/kg once daily 5 days/week up to 6 weeks", "value": 9, "unit": "days"}]}]}
